# Columns and labels:
# Test in all cases: relative viability (nuclei count vs DMSO), 5 days (fraction); higher = more cells survive
# [1] = system: PC-3 [JPC-3]
# In short: (§1)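 Five library-drug doses in √10 steps were combined with a fixed anchor-drug dose, or a single drug was given alone, by pin tool to lung cancer cell lines in 1536-well plates the day after seeding. Nuclei were stained and counted after 5 days. Relative viability is the nuclei count in treated wells over that in vehicle wells, taken as the median of duplicate plates.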
# [2] = system: SW 900
# In short: as §1
# [3] = system: H3255
# In short: as §1
# [4] = system: NCI-H1666
# In short: as §1
# [5] = system: LK-2
# In short: as §1
# [6] = system: NCI-H23
# In short: as §1
# [7] = system: SK-MES-1
# In short: as §1
# [8] = system: HCC-366
# In short: as §1
# [9] = system: NCI-H596
# In short: as §1
# [10] = system: COR-L 105
# In short: as §1
# [11] = system: NCI-H1755
# In short: as §1
# [12] = system: A-427
# In short: as §1
# [13] = system: LOU-NH91
# In short: as §1
# [14] = system: NCI-H2170
# In short: as §1
# [15] = system: NCI-H1975
# In short: as §1
# [16] = system: ChaGo-K-1
# In short: as §1
# [17] = system: EKVX
# In short: as §1
# [18] = system: NCI-H441
# In short: as §1
# [19] = system: NCI-H520
# In short: as §1
# [20] = system: NCI-H1734
# In short: as §1
# [21] = system: EMC-BAC-2
# In short: as §1
structure (smiles),measurement,setting,value
COc1nc(C)cnc1NS(=O)(=O)c1cccnc1-c1ccc(-c2nnco2)cc1 [Zibotentan] + O=C(CCCCCCC(=O)Nc1ccccc1)NO [Vorinostat] (partner 1 µM),relative viability,[1]; first compound 0.08 µM,1.19
same,relative viability,[1]; first compound 0.253 µM,0.561
same,relative viability,[1]; first compound 0.8 µM,0.72
same,relative viability,[1]; first compound 2.53 µM,0.867
same,relative viability,[2]; first compound 0.08 µM,0.559
same,relative viability,[2]; first compound 0.253 µM,0.404
same,relative viability,[2]; first compound 0.8 µM,0.552
same,relative viability,[2]; first compound 2.53 µM,0.588
same,relative viability,[3]; first compound 0.08 µM,0.926
same,relative viability,[3]; first compound 0.253 µM,0.785
same,relative viability,[3]; first compound 0.8 µM,0.877
same,relative viability,[3]; first compound 2.53 µM,0.778
same,relative viability,[4]; first compound 0.08 µM,1.17
same,relative viability,[4]; first compound 0.253 µM,0.95
same,relative viability,[4]; first compound 0.8 µM,1.04
same,relative viability,[4]; first compound 2.53 µM,1.1
same,relative viability,[5]; first compound 0.08 µM,0.304
same,relative viability,[5]; first compound 0.253 µM,0.305
same,relative viability,[5]; first compound 0.8 µM,0.338
same,relative viability,[5]; first compound 2.53 µM,0.209
same,relative viability,[6]; first compound 0.08 µM,0.642
same,relative viability,[6]; first compound 0.253 µM,0.497
same,relative viability,[6]; first compound 0.8 µM,0.452
same,relative viability,[6]; first compound 2.53 µM,0.707
same,relative viability,[7]; first compound 0.08 µM,1.18
same,relative viability,[7]; first compound 0.253 µM,0.793
same,relative viability,[7]; first compound 0.8 µM,1.09
same,relative viability,[7]; first compound 2.53 µM,1.12
same,relative viability,[8]; first compound 0.08 µM,0.461
same,relative viability,[8]; first compound 0.253 µM,0.248
same,relative viability,[8]; first compound 0.8 µM,0.21
same,relative viability,[8]; first compound 2.53 µM,0.358
same,relative viability,[9]; first compound 0.08 µM,0.568
same,relative viability,[9]; first compound 0.253 µM,0.533
same,relative viability,[9]; first compound 0.8 µM,0.591
same,relative viability,[9]; first compound 2.53 µM,0.713
same,relative viability,[10]; first compound 0.08 µM,0.904
same,relative viability,[10]; first compound 0.253 µM,0.756
same,relative viability,[10]; first compound 0.8 µM,0.781
same,relative viability,[10]; first compound 2.53 µM,0.99
same,relative viability,[11]; first compound 0.08 µM,0.851
same,relative viability,[11]; first compound 0.253 µM,0.742
same,relative viability,[11]; first compound 0.8 µM,0.803
same,relative viability,[11]; first compound 2.53 µM,0.818
same,relative viability,[12]; first compound 0.08 µM,0.921
same,relative viability,[12]; first compound 0.253 µM,0.848
same,relative viability,[12]; first compound 0.8 µM,0.905
same,relative viability,[12]; first compound 2.53 µM,0.928
same,relative viability,[13]; first compound 0.08 µM,0.941
same,relative viability,[13]; first compound 0.253 µM,0.78
same,relative viability,[13]; first compound 0.8 µM,0.953
same,relative viability,[13]; first compound 2.53 µM,0.947
same,relative viability,[14]; first compound 0.08 µM,0.883
same,relative viability,[14]; first compound 0.253 µM,0.778
same,relative viability,[14]; first compound 0.8 µM,0.875
same,relative viability,[14]; first compound 2.53 µM,0.908
same,relative viability,[15]; first compound 0.08 µM,0.758
same,relative viability,[15]; first compound 0.253 µM,0.646
same,relative viability,[15]; first compound 0.8 µM,0.632
same,relative viability,[15]; first compound 2.53 µM,0.7
same,relative viability,[16]; first compound 0.08 µM,0.802
same,relative viability,[16]; first compound 0.253 µM,0.764
same,relative viability,[16]; first compound 0.8 µM,0.713
same,relative viability,[16]; first compound 2.53 µM,0.815
same,relative viability,[17]; first compound 0.08 µM,0.675
same,relative viability,[17]; first compound 0.253 µM,0.818
same,relative viability,[17]; first compound 0.8 µM,0.727
same,relative viability,[17]; first compound 2.53 µM,0.777
same,relative viability,[18]; first compound 0.08 µM,0.78
same,relative viability,[18]; first compound 0.253 µM,0.721
same,relative viability,[18]; first compound 0.8 µM,0.783
same,relative viability,[18]; first compound 2.53 µM,0.794
same,relative viability,[19]; first compound 0.08 µM,0.778
same,relative viability,[19]; first compound 0.253 µM,0.799
same,relative viability,[19]; first compound 0.8 µM,0.794
same,relative viability,[19]; first compound 2.53 µM,0.711
same,relative viability,[20]; first compound 0.08 µM,0.842
same,relative viability,[20]; first compound 0.253 µM,0.705
same,relative viability,[20]; first compound 0.8 µM,0.864
same,relative viability,[20]; first compound 2.53 µM,0.912
same,relative viability,[21]; first compound 0.08 µM,0.907
same,relative viability,[21]; first compound 0.8 µM,0.546
same,relative viability,[21]; first compound 2.53 µM,0.514
